In patent US20200048208A1, “TREATMENT OF DISEASES OR DISORDERS CAUSED BY INDUCED NFkB TRANSCRIPTIONAL ACTIVITY” (Senex Biotechnology, Inc., priority 2011, published 2020):
Entries after “also recorded” stand apart in the source; their conditions may differ. Non-standard residues stand in square brackets, D forms with d. Residues, ends and D or L forms follow the SMILES beside them. *: point of attachment. Nva = CCC[C@H](N)C(=O)O; Cbz = O=C(OCc1ccccc1)*

How the values were obtained:
[1] = clinical experience (Cavaletti and Jakubowiak, 2010); cited from earlier work
[2] = tested on: p50; experiment: TransAM NFκB DNA-binding ELISA of nuclear extracts, p50; assay type: cell-based, human; conditions: HT1080 and HEK293 cells, untreated and TNFα-treated; 5 μM Senexin A, 60 μM TPCK, 10 μM MG115 for 3 hours
Text: (§1) Given the role of NFxB in the induction of transcription by p21 (Poole et al., 2004), we have tested SNX2 for the ability to decrease the amount of active NFκB in the nucleus, a general assay for different known classes of NFκB inhibitors. As shown in FIG. 8 of US patent publication 20080033000, we have found, using ACTIVE MOTIF TransAM™ NFκB p65 Chemi and NFκB p50 Chemi Transcription Factor Assay Kits, that SNX2 had no effect on the amount of p50 or p65 NFκB subunits binding to NFκB consensus sequence in nuclear extracts from HT 1080 cells, untreated or treated with NFκB inducer TNFα.
(§2) The DNA-binding activities of nuclear NFκB proteins were measured by the ELISA-based TransAM NFκB Family Transcriptional Factor Assay Kit (Active Motif) following manufacturer's protocol. HT1080 and HEK293 cells were pretreated with inhibitors (5 μM Senexin A, 60 μM TPCK, 10 μM MG115) for 3 hours and then treated with 10 ng/ml TNF for 30 minutes before nuclear extract preparation with Nuclear Extraction Kit (Active Motif). Nuclear extracts were assayed at 5 μg/well for p65 and 2.5 μg/well for p50 DNA binding.

[3] = tested on: HT1080-derived NFkB-GFP reporter cell line; experiment: Propidium iodide flow cytometry for dead cells; assay type: cell-based, human; conditions: inhibitor 3 hours then 18 hours TNFα (10 ng/ml)
Procedure: (§3) We have compared Senexin A to two known proteasome-targeting NFκB inhibitors, N-tosyl-L-phenylalanine chloromethyl ketone (TPCK) (Ha et al., 2009) and MG115 in regard to their cytotoxicity and their effect on the nuclear translocation of active NFκB. In the experiment shown in FIG. 7, the HT1080-derived NFkB-GFP reporter cell line was seeded in 60 mm plates at 1.5×10^5 cells per plate and cultured overnight before being treated with different NFκB inhibitors at the concentrations indicated in FIG. 7 for 3 hours, followed by 18 hours TNFα (10 ng/ml) stimulation. The treated cells were trypsinized, resuspended in PBS, mixed with 5 μg/ml propidium iodide (PI), and analyzed using LSRII flow cytometer (BD Biosciences) for GFP fluorescence (left panel) and the percentage of dead (PI-positive) cells (right panel).

[4] = tested on: p65; experiment: TransAM NFκB DNA-binding ELISA of nuclear extracts, p65; assay type: cell-based, human; conditions: HT1080 and HEK293 cells, untreated and TNFα-treated; 5 μM Senexin A, 60 μM TPCK, 10 μM MG115 for 3 hours
Text: as §1, §2

[5] = tested on: TNFα-induced NFκB-dependent transcription; experiment: NFkB-GFP reporter flow cytometry after inhibitor and TNFα (GFP fluorescence); assay type: cell-based, human; conditions: HT1080-derived reporter, inhibitor 3 hours then 18 hours TNFα (10 ng/ml)
Procedure: as §3

[6] = tested on: NFκB-inducible genes; experiment: QPCR of NFκB-inducible genes in TNFα-treated HEK293 cells; assay type: cell-based, human; conditions: HEK293, 5 μM pretreatment 1 hour, 10 ng/ml TNFα 30 minutes
Procedure: The cells were seeded in 6-well plates at 6×10^5 cells/well in media containing 3% serum and cultured overnight. The next day, cells were pretreated with 5 μM Senexin A or with DMSO vehicle control for 1 hour and treated with or without 10 ng/ml TNFα for 30 minutes. Cells were then lysed for total RNA purification with the RNeasy Kit (Qiagen). For QPCR analysis of NFκB-inducible genes, cDNA was prepared using Maxima First Strand cDNA Synthesis Kit (Thermo Scientific/Fermentas, K1641) and gene expression was measured by QPCR with gene-specific primers, with RPL13A as a normalization standard, using Maxima SYBR Green/ROX qPCR Master Mix (Thermo Scientific/Fermentas, K0223) and ABI Prism 7900HT Detection system (Life technologies).

[7] = tested on: NFκB-dependent promoter; experiment: NFκB-GFP reporter assay, induction by IPTG-inducible p21 (flow cytometric); assay type: cell-based, human; conditions: HT1080 p21-9 derived NFκB-GFP reporter cells, 50 mM IPTG for 72 hrs, different concentrations
Procedure: (§4) We have tested the effects of SNX2-class compounds on NFκB transcriptional activity. These assays were conducted with a reporter cell line that we derived from HT1080 p21-9 cells carrying IPTG-inducible p21 (Chang et al., 1999) after transduction with Cignal Lenti NFκB Reporter lentivirus (SA Biosciences), which expresses GFP from a NFκB-dependent minimal promoter. The reporter cell line was then selected for a high basal level of NFκB-dependent GFP expression, which was further increased by TNFα or upon p21 induction by IPTG.

[8] = tested on: NFκB-dependent promoter; experiment: NFκB-GFP reporter assay, TNFα induction (96-well fluorometric); assay type: cell-based, human; conditions: HT1080-based NFκB-GFP reporter cells
Procedure: as §4
The ability of SNX2-class compounds to prevent the induction of the NFκB-dependent promoter by p21 was not surprising, since these compounds were identified by their ability to prevent p21-mediated induction of another promoter (CMV) (Chang et al., 2008), and NFκB stimulation by p21 was already known.

[9] = tested on: NFκB-inducible genes; experiment: QPCR of NFκB-inducible genes in TNFα-treated p21−/− HCT116 cells; assay type: cell-based, human; conditions: p21−/− HCT116, 5 μM pretreatment 1 hour, 10 ng/ml TNFα 30 minutes
Procedure: (§5) We have verified the effect of CDK8/19 inhibition on NFκB-mediated induction of transcription in human HCT116 colon carcinoma cells, where we also used the availability of a p21−/− derivative of this cell line (Waldman et al., 1996) to determine if this effect depends on p21. The wild-type and p21−/− HCT116 cells were seeded in 6-well plates at 6×10^5 cells/well in media with 10% serum and cultured overnight. The next day, cells were pretreated with 5 μM Senexin A or with DMSO vehicle control for 1 hour and treated with or without 10 ng/ml TNFα for 30 minutes. Cells were then lysed for RNA purification and QPCR analysis of NFκB-inducible genes.

[10] = tested on: NFκB-inducible genes; experiment: QPCR of NFκB-inducible genes in TNFα-treated wild-type HCT116 cells; assay type: cell-based, human; conditions: wild-type HCT116, 5 μM pretreatment 1 hour, 10 ng/ml TNFα 30 minutes
Procedure: as §5

[11] = tested on: induction of transcription by p21; conditions: at concentrations that inhibit NFκB (Poole et al., 2004); cited from earlier work
[12] = bone loss therapy (Hiligsmann and Reginster, 2010); cited from earlier work

CC(C)C[C@H](NC(=O)[C@H](Cc1ccccc1)NC(=O)c1cnccn1)B(O)O [Bortezomib]
Bortezomib-induced peripheral neuropathy [1]: 37-44 % of patients

CCC[C@@H](C=O)NC(=O)[C@H](CC(C)C)NC(=O)[C@H](CC(C)C)NC(=O)OCc1ccccc1 [MG115, reference compound] (Cbz-Leu-Leu-[Nva]-aldehyde)
amount of active p50 (DNA binding) in nuclear extracts [2]: strongly decreased
fraction of dead (PI-positive) cells [3]: strongly increased the fraction of dead cells
amount of active p65 (DNA binding) in nuclear extracts [4]: strongly decreased
TNFα-induced NFκB-dependent transcription (GFP fluorescence) [5]: inhibited TNFα-induced NFκB-dependent transcription

N#Cc1ccc2ncnc(NCCc3ccccc3)c2c1 [SNX2-1-53]
induction of NFκB-regulated genes by TNFα [6]: drastically inhibited
induction of the NFκB-dependent promoter by p21 (GFP expression) [7]: strongly inhibited
induction of the NFκB-dependent promoter by p21 (GFP expression) ([7]; listed as Senexin A): dose dependent inhibition
amount of active p50 (DNA binding) in nuclear extracts [2]: does not block; also recorded: indistinguishable from the control
TNFα-induced NFκB activity (GFP expression normalized by Hoechst 33342) ([8]; 10 ng/ml TNFα for 18 hrs): inhibited TNFα-induced NFκB activity
basal NFκB activity (normalized GFP expression) ([8]; untreated (no TNFα)): did not significantly inhibit
fraction of dead (PI-positive) cells ([3]; listed as Senexin A): minimal effects on cell viability; also recorded: did not
TNFα-induced gene expression [9]: inhibited TNFα-induced gene expression to the same degree
amount of active p65 (DNA binding) in nuclear extracts [4]: does not block; also recorded: indistinguishable from the control
TNFα-induced NFκB-dependent transcription (GFP fluorescence) ([5]; listed as Senexin A): inhibits NFκB activation; also recorded: inhibited TNFα-induced NFκB-dependent transcription
TNFα-induced gene expression [10]: inhibited TNFα-induced gene expression to the same degree

CC1=C(CC(=O)O)c2cc(F)ccc2/C1=C\c1ccc([S+](C)[O-])cc1 (stereo not shown) [Sulindac]
induction of transcription by p21 [11]: inhibited

N-tosyl-L-phenylalanine chloromethyl ketone [TPCK, reference compound]
amount of active p50 (DNA binding) in nuclear extracts [2]: strongly decreased
fraction of dead (PI-positive) cells [3]: strongly increased the fraction of dead cells
amount of active p65 (DNA binding) in nuclear extracts [4]: strongly decreased
TNFα-induced NFκB-dependent transcription (GFP fluorescence) [5]: inhibited TNFα-induced NFκB-dependent transcription

denosumab
safety profile [12]: good safety profile
